Data reported in patent US20210346328A1, “COMPOSITIONS AND METHODS FOR TREATING METABOLIC DISORDERS” (The Johns Hopkins University, priority 2018, published 2021).

Key:
CREB signaling in VMH = assay: CREB phosphorylation in hypothalamus (VMH) after injection; format: in vivo, mouse
Procedure: FIG. 28. (A) Western blot analysis of HTR2C and p-CREB in hypothalamus tissue from 12-week-old mice after PGE2 or vehicle injection at different periods. […] DAPI stains nuclei blue. Scale bar, 50 μm.
The femurs were collected and fixed in 4% paraformaldehyde overnight and decalcified by using 10% EDTA (pH, 7.4) (Amresco, 0105) for 21 days. The samples were then dehydrated with 30% sucrose for 24 h and embedded in paraffin or optimal cutting temperature compound (Sakura Finetek). 4-μm-thick coronal-oriented sections of the femur were prepared for hematoxylin and eosin staining. The femurs were fixed for 4 h with 4% paraformaldehyde at 4° C. and then decalcified at 4° C. using 0.5M EDTA (pH, 7.4) for 24 h with constant shaking. The samples were dehydrated in 20% sucrose and 2% polyvinylpyrrolidone (PVP) solution for 24 h and embedded in 8% gelatin (Sigma-Aldrich, G1890) in the presence of 20% sucrose and 2% PVP. Forty-μm-thick coronal-oriented sections of the femurs were obtained.

[1] = target: EP4 in the sensory nerves (Mus musculus, UniProt P32240); assay: PGE2-induced bone formation, trichrome and calcein double labeling; format: in vivo; details: wild-type mice; 3 mg per kg per day PGE2 for 3 consecutive days
Sequence of EP4 in the sensory nerves (Mus musculus, UniProt P32240) (P32240 whole entry): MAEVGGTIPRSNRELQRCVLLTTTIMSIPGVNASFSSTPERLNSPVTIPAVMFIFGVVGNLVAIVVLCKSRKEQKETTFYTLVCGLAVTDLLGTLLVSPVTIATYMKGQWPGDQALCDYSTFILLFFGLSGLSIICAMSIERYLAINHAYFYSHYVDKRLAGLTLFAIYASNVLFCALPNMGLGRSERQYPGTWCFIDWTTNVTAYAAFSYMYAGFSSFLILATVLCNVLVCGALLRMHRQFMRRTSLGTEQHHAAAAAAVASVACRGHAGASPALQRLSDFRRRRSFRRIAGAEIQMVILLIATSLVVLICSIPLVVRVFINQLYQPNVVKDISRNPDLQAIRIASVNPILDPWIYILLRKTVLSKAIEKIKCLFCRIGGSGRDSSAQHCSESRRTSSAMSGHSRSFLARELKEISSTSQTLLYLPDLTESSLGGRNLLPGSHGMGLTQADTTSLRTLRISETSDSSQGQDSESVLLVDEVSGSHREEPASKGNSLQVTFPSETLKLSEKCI
Procedure: (§1) FIG. 9. […] DAPI stains nuclei blue. […] Calcein was injected 5 days and 1 day before sacrifice. Representative images of calcein double labeling of femoral trabecular bone with quantification of mineral apposition rate (MAR) and bone formation rate (BFR). Scale bar, 20 μm. […] (Student t-test, except j with ANOVA)
(§2) As EP4 expression is also known to express in osteoblasts, osteoblastic cell-specific knockout EP4 mice were generated by crossing […] mice with osteocalcin-cre (OC-cre) mice (FIG. 12A).
(§3) A double-labeling procedure was performed to measure dynamic bone formation. Briefly, 0.1% calcein (Sigma-Aldrich, C0875) was injected in phosphate-buffered saline at a concentration of 10mg per kg into the mice subcutaneously 7 days and 1 day before sacrifice. The double-labeling images of undecalcified bone slices were captured using a fluorescence microscope. Trabecular bone formation in four randomly selected visual fields was analyzed in the distal metaphyseal area of the femur.

[2] = system: EP4 in the sensory nerves; assay: as above; format: in vivo, mouse; details: EP4Avil−/− mice; 3 mg per kg per day PGE2 for 3 consecutive days
Procedure: as §1, §2, §3

DRG neurons = assay: Calcium imaging of isolated DRG neurons; details: DRG neurons pre-incubated with 10 μM PGE2 for 5 min, relative to vehicle-treated neurons
15-PGDH [3] = target: T1, 15-PGDH (Mus musculus, UniProt Q8VCC1); assay: Bone regeneration after femoral bone marrow ablation; format: in vivo
T1 sequence (Q8VCC1 1-269): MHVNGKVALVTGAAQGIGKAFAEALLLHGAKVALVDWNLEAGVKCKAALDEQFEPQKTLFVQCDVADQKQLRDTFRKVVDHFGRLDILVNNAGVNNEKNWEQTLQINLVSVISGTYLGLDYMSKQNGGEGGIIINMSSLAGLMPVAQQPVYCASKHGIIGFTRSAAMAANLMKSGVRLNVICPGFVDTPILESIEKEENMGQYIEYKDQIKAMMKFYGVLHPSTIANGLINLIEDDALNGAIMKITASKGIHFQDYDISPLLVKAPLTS
Excerpt: FIG. 31. […] Scale bar: 1 mm. Selected areas for the measurements of bone volume (BV)/tissue volume (TV) were indicated with a yellow square. b Representative images of hematoxylin-eosin staining, double immunofluorescence analysis of CD31^+ Emcn^+ cells, and immunofluorescence analysis of Leptin receptor (LepR)^+ cells in the regeneration area. Scale bar, 100 μm. c Graphic illustration of this study. When bone density decreases by osteoclast bone resorption, PGE2 secretion by osteoblastic cells increases at bone remodeling sites. PGE2 activates EP4 receptor at sensory nerve to tune down sympathetic tones for osteoblast differentiation at the bone remodeling microenvironment. The sensory nerve controlling process is likely a temporal-spatial precision action. […] (ANOVA)
PGE2 has been reported recently to potentiate regeneration of multiple tissues (see, Zhang, Y. et al. Science 348, aaa2340, doi:10.1126/science.aaa2340 (2015)). To investigate whether PGE2 induces tissue regeneration through sensory nerves, experiments were conducted that assessed whether PGE2 induces bone regeneration. […] However, the regeneration of trabecular bone by SW033291 was obstructed in EP4Avil^−/− mice (FIG. 31A, B). […] Thus, PGE2 stimulates bone regeneration through sensory nerves.
The femurs were harvested from mice, and the soft tissue around the bone was removed, followed by fixation overnight using 4% paraformaldehyde. μCT analyses were performed by using a high-resolution μCT scanner (SkyScan, 1174). The voltage of the scanning procedure was 65 kv with a 153-μA current. The resolution was set to 8.7 μm per pixel. Reconstruction software (NRecon, v1.6, SkyScan), data analysis software (CTAn, v1.9, SkyScan), and 3D model visualization software (CTVol, v2.0, SkyScan) were used to analyze the diaphyseal cortical bone and the metaphyseal trabecular bone parameters of the femurs. Experiments were conducted that created cross-sectional images of the femur to perform 2D analyses of the cortical bone and 3D analyses of the trabecular bone. The region of interest (ROI) of the trabecular bone was drawn beginning from 5% of the femur length proximal to the distal metaphyseal growth plate and extending proximally for another 5% of the total femur length. The trabecular bone volume fraction (BV/TV), trabecular thickness (Tb. Th), trabecular number (Tb. N), and trabecular separation (Tb. Sp) were collected from the 3D analyses data and used to represent the trabecular bone parameters. The cortical bone ROI was drawn beginning from 20% of femur length proximal to distal metaphyseal growth plate and extending proximally to another 10% of the total femur length. […]

15-PGDH [4] = target: T1, 15-PGDH; assay: Liver regeneration after partial hepatectomy; format: in vivo; details: TrkAAvil−/− mice treated with SW033291 relative to WT littermates
Excerpt: FIG. 32. (A) Double-immunofluorescence images of liver tissue sections from TrkA^wt and TrkAAvil^−/− mice with vehicle or SW033291 treatment using antibodies against and Ki67 (red) and CGRP (green). DAPI stains nuclei blue. Percentages of the Ki67+cells are shown in the right panel. Scale bar, 100 μm.(B) BrdU staining images of liver tissue sections from TrkA^wt and TrkAAvil^−/− mice with vehicle or SW033291 treatment. Scale bar, […]. Percentages of the BrdU+cells are shown in the right panel. […] (ANOVA).
To further investigate whether PGE2 induces regeneration by sensory nerves of tissues other than bone, experiments were conducted that performed partial hepatectomy in TrkAAvil^−/− mice and their WT littermates treated with SW033291 or vehicle.
Partial hepatectomy was used for the liver regeneration model. 10- to 12-week-old […] male mice were anesthetized, as described above. A partial (two-thirds) hepatectomy was performed by resecting the median and left lateral hepatic lobes^54. The remnant livers were harvested after mice sacrifice. SW033291 was dissolved in a vehicle of 10% ethanol, 5% Cremophor EL, and 85% dextrose 5% in water.

[5] = system: sensory nerves of iDTRAvil mice; details: mouse, in vivo

Compound: O=C(O)CCC/C=C\C[C@H]1C(=O)C[C@@H](O)[C@@H]1/C=C/[C@@H](O)CCc1ccccc1 [EP1/3 agonist]
- phosphorylation of CREB (pCREB level) in VMH (CREB signaling in VMH; C57BL/6 mice, agonist 200 ug per kg, 6 hours, relative to vehicle-treated mice): did not increase

Compound: CCCCC[C@H](O)/C=C/[C@H]1[C@H](O)CC(=O)[C@@H]1C/C=C\CCCC(=O)O [PGE2, prostaglandin E2]
- bone formation (trichrome, calcein double labeling: MAR, BFR) [1]: significant bone formation
- bone formation (trichrome, calcein double labeling: MAR, BFR) [2]: abolished
- activated (illuminated) DRG neurons, calcium imaging (DRG neurons): more illuminated DRG neurons
- phosphorylation of CREB in hypothalamus, Western blot time course (CREB signaling in VMH; 12-week-old mice after PGE2 injection): increased gradually
- PGE2-induced CREB phosphorylation in VMH, immunostaining (CREB signaling in VMH; EP4Avil−/− mice, 3 mg per kg PGE2, 6 h): abolished
- CREB phosphorylation in VMH, immunostaining (CREB signaling in VMH; WT (EP4wt) mice, 3 mg per kg PGE2, 6 h after injection): increased significantly
- time of peak phosphorylation of CREB in hypothalamus (CREB signaling in VMH; Western blot, after PGE2 injection): 6 h

Compound: CCCC[S+]([O-])c1sc2nc(-c3cccs3)cc(-c3ccccc3)c2c1N (stereo not shown) [SW033291]
- type H vessels in the regeneration area (15-PGDH [3]; EP4Avil−/− mice with or without injection of SW033291): almost undetectable
- regeneration of trabecular bone (15-PGDH [3]; EP4Avil−/− mice, 10 mg per kg per day SW033291): obstructed
- type H vessel (CD31hi Endomucinhi) growth in the regeneration area (15-PGDH [3]; EP4wt mice treated with SW033291): significantly increased
- trabecular bone regeneration (μCT, HE staining) (15-PGDH [3]; EP4wt mice, 10 mg per kg per day SW033291, relative to vehicle-treated controls): boosted trabecular bone regeneration significantly
- liver regeneration rate (BrdU and Ki67 staining) (15-PGDH [4]): decreased significantly

Compound: diphtheria toxin [DTX]
- Sensory denervation (CGRP+ sensory nerves in femur) [5]: effectively induced
- amount of osteoid [5]: significantly decreased
- bone formation (calcein double-labeling) [5]: reduced
- bone loss (μCT, femur) [5]: Significant bone loss
- bone mass in the vertebrae [5]: decreased
- mineral apposition rate (calcein double-labeling) [5]: reduced
- motor neural activity (pole tests and grip strength tests) [5]: No motor neural activity was influenced
- number of osteoblasts [5]: significantly decreased
- number of osteoclasts [5]: unchanged
- sensory innervations in the vertebrae [5]: decreased
- serum CTX level [5]: unchanged
- serum osteocalcin level [5]: significantly decreased
